Columns and labels:
[1] = system: Tnks 1 and 2, Axin, β-catenin in SW480 cells; experiment: Western blot of Tnks, Axin and β-catenin levels in SW480 cells; assay type: cell-based; conditions: SW480 cells (truncated Apc), FIG. 1A
Protocol: (FIG. 1A) Biochemical markers of Tnks inhibition associated with the Wnt/β-catenin pathway. […] (FIG. 1B) A biochemical screen to identify additional Tnks inhibitors from the IWR collection of Wnt pathway inhibitors. The effects of the IWR compounds on Tnks 1 and 2, β-catenin, and acetylated tubulin (Ac-Tub; loading control) expression levels were determined in SW480 cells by Western blot analysis.
For Western blot analysis cell lysates were generated with either PBS-NP40 buffer [phosphate-buffered saline (PBS)/1% NP40], or Tris-Triton X-100 buffer [50 mM Tris (pH 8), 200 mM NaCl, 1 mM EDTA, 1% Triton X-100, 10% glycerol, 1 mM DTT, 0.5 mM deoxycholate]. Both buffers were supplemented with protease inhibitor cocktail (Sigma). […] The lysates were cleared by centrifugation at 15,000 rpm for 10 min.

[2] = system: Axin2 in DLD-1 cells; experiment: Expression of Axin2 in DLD-1 cells; assay type: cell-based; conditions: exposure for 2 h
Excerpt: Aberrant transcriptional induction of Wnt/β-catenin target genes is typically observed in CRC cells that harbor loss-of-function mutations in the APC tumor suppressor. […] See Chen et al. (2007), which is incorporated herein by reference.

[3] = system: zebrafish; experiment: Zebrafish caudal fin regeneration after chemical removal; assay type: in vivo; conditions: resected caudal fins, water containing compound for 7 d, then removal
Excerpt: Achieving transient repression of pathological Wnt response without incurring permanent damage to normal stem cell function is a key anticancer therapeutic goal.

[4] = target: TNKS1 (Homo sapiens, UniProt O95271); experiment: PARP profiling, parsylation of immobilized histone; assay type: biochemical; conditions: IWR compounds 10 μM
Chain of TNKS1 (O95271 whole entry): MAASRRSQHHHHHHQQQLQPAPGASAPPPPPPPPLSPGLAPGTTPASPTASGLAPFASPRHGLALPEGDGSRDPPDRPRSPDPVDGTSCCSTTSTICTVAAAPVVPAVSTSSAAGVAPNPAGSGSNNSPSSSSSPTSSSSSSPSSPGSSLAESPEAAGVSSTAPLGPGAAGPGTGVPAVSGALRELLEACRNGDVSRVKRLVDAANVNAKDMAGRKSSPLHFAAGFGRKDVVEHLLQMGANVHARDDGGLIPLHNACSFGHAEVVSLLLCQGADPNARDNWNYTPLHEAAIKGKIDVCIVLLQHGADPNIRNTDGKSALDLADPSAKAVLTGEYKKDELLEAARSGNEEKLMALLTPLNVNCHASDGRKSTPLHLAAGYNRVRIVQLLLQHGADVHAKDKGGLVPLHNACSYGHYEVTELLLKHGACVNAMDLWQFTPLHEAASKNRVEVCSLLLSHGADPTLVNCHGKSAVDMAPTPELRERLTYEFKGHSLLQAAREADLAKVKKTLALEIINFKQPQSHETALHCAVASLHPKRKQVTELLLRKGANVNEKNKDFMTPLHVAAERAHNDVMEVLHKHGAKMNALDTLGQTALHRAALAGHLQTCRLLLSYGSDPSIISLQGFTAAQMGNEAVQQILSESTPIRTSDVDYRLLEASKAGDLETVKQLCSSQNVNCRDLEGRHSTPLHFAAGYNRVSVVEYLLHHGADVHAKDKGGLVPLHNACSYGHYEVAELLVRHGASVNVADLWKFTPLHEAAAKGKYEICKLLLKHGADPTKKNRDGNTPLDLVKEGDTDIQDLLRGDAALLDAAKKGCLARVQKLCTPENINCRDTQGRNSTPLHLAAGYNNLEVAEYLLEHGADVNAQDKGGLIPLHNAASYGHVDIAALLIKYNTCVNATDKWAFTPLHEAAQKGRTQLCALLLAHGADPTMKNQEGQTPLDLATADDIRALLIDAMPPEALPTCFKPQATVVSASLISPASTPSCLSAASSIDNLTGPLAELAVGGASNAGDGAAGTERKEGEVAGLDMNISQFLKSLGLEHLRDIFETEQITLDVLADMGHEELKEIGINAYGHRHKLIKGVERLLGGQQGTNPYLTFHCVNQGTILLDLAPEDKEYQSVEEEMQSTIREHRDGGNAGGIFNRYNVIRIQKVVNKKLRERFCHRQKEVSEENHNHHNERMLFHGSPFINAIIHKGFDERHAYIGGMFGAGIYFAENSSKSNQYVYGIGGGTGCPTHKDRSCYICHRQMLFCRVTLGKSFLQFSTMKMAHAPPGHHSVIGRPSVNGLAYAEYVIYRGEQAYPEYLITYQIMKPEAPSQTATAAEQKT

[5] = target: TNKS2 (Homo sapiens, UniProt Q9H2K2); experiment: PARP profiling, parsylation of immobilized histone; assay type: biochemical; conditions: IWR compounds 10 μM
Chain of TNKS2 (Q9H2K2 whole entry): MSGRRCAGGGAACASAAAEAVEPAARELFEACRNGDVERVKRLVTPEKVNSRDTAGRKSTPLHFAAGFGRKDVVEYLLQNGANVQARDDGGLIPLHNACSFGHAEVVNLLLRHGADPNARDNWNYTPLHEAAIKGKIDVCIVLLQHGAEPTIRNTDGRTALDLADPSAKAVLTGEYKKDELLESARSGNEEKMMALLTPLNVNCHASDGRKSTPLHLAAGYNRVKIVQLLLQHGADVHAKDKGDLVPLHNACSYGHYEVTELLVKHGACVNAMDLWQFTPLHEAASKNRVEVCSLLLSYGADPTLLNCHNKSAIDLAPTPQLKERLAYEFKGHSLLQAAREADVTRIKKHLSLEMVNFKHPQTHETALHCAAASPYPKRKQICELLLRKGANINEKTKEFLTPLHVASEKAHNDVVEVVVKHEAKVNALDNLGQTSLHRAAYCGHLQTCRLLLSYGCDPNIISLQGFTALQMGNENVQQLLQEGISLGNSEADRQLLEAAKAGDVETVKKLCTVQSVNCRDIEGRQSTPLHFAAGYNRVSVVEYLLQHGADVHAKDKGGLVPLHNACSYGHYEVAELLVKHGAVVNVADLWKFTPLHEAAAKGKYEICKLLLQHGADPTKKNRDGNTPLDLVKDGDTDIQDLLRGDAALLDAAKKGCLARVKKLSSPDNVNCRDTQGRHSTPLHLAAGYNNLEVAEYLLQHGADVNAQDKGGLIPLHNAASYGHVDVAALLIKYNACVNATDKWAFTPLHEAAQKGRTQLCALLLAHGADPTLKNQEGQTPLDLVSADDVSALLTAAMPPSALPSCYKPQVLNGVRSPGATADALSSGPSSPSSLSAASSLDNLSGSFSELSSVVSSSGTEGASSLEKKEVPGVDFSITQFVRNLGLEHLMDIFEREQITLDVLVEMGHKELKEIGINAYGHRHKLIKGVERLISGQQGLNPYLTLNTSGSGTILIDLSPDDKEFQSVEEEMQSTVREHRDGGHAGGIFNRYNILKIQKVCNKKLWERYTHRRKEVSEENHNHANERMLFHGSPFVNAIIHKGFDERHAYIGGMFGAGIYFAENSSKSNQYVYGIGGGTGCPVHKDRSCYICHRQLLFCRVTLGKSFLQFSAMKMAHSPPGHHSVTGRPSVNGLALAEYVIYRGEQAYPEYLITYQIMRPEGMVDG

[6] = target: T1, purified Tnks1 SAM-PARP protein (Homo sapiens, UniProt O95271); experiment: In vitro Tnks activity assay, histone parsylation (HT Universal Color PARP Assay Kit); assay type: biochemical; conditions: parsylation of immobilized histone, colorimetric, FIG. 2A
T1 construct: purified Tnks1 SAM-PARP protein; provided by Herwig Schüler (gift, not a vendor)
T1 sequence (O95271 1030-1317 limits assumed): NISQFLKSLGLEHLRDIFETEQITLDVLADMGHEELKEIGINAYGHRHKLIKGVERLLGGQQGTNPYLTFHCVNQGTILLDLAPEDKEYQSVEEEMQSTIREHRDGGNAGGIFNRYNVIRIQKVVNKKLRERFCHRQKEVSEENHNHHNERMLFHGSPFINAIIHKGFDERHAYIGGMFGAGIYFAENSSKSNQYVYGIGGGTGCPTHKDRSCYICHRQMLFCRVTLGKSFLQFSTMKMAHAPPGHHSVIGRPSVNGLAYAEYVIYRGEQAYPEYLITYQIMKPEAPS

[7] = system: β-catenin activity in DLD-1 cells; experiment: Wnt/β-catenin specific luciferase reporter (SuperTopFlash) in DLD-1 cells; assay type: cell-based; conditions: FIG. 2B
Protocol: Representative IWRs from each chemotype were evaluated for their ability to inhibit purified recombinant Tnks1 protein (Tnks1 […] protein). Parsylation of immobilized histone protein was determined by colorimetric detection of incorporated biotinylated NAD+ in 96 well format.
Luciferase Reporter Assays.
Assays were executed as described using a Dual Luciferase kit (Promega), and SuperTopFlash and control SV40-driven Renilla luciferase reporters (SV40-Ren luc) (Chen, et al., 2009).

[8] = system: SW403 cells; experiment: Cell growth of SW403 cells; assay type: cell-based; conditions: FIG. 2C
[9] = target: T2, catalytic domain of human Tnks1 (Homo sapiens, UniProt O95271); experiment: Crystal structures of IWR compound/Tnks1 complexes, binding pocket; conditions: crystal structure, FIGS. 3A-3C
T2 construct: The catalytic domain of human Tnks1 (residues 1105-1313) was expressed; His6 (with TEV site) (N, cleaved yes); made in house; host or cells: E. coli BL21 (DE3)
T2 sequence (O95271 1105-1313): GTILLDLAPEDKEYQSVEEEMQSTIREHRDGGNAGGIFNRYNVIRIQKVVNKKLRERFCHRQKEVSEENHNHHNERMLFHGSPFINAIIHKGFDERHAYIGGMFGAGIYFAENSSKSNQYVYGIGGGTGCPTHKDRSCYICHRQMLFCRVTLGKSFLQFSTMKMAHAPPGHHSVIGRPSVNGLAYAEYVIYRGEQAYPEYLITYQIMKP
Protocol: Protein Expression and Purification.
The catalytic domain of human Tnks1 (residues 1105-1313) was expressed by using a modified pET28 vector, which encodes an N-terminal His6-tag and a cleavage site for the Tobacco Etch Virus (TEV) protease. Protein expression was induced by 0.1 mM IPTG at 15° C. when the culture of the bacteria strain BL21 (DE3) transformed with the plasmid reached O.D. of 1.5. Cells were harvested 12 hrs after induction and lysed by Frenchpressing. The lysate was cleared by centrifugation at 15000 rpm for 1 hr. The protein was purified by Ni-NTA-based affinity chromatography and ion exchange chromatography. The N-terminal His6-tag was removed by overnight TEV protease treatment at 4° C. Purified protein was concentrated and stored in −80° C.
Crystallization, Data Collection and Structure Determination.
The purified Tnks1 catalytic domain at 5 mg/mL (0.22 mM) mixed with IWR-1 (the exo-form), IWR-3 and IWR-8 at 0.25 mM were subjected to crystallization trials by using sitting-drop 96-well plates. Following initial hits of crystallization, large crystals were obtained by hanging-drop vapor diffusion in conditions optimized based on the initial conditions. Crystals of the Tnks1/IWR-1 complex were grown at 20° C. in 0.1 M Bis-Tris (pH 5.3), 0.15 M MgCl2 and 20-23% PEG3350. […]

SMILES | Tnks and Axin protein levels [1] | β-catenin protein level [1] | expression of Axin2 [2] | fin regeneration after chemically induced blockade [3] | inhibition at 10 µM [4] [%] | inhibition at 10 µM [5] [%] | ability to inhibit purified recombinant Tnks1 protein [6] | β-catenin activity induced by loss of APC function [7] | cell growth in a cancer cell line with compromised APC function [8] | binding pocket engaged in Tnks1 [9]
O=C(Nc1cccc2cccnc12)c1ccc(N2C(=O)[C@@H]3[C@H](C2=O)[C@@H]2C=C[C@H]3C2)cc1 [IWR-1] | induce stabilization of both Tnks enzymes and Axin proteins | promote destruction of β-catenin | decrease in the expression of Axin2 | able to regenerate tissue to nearly normal levels after chemical removal |  |  |  |  |  | 
CCN(C(=O)C1CCN(S(=O)(=O)c2cc3c(cc2Br)CCN3C(C)=O)CC1)c1cccc(C)c1 [IWR-8] |  |  |  |  | 99 | 99 | directly target Tnks | inhibits β-catenin activity induced by loss of APC function | inhibits cell growth | engage the AD pocket
